What was measured:
[1] = biological target: T1, SDH (Mus musculus, UniProt Q8K2B3); test: SDH activity in mouse heart and liver; type: in vivo; details: daily DI administration i.p.
T1 construct: from tissue; host or cells: mitochondria isolated from mouse heart and liver
Protocol: DI was administered to mice via the intraperitoneal route at 20 mg/500 μL sterile PBS per mouse either once per day for total length of 4 days (DI daily) or every 2 h, 3 times in total (DI overdose). In daily DI administration, last injection was 6 h before the tissue harvest, in DI overdose protocol last injection was 2 h before harvest. Mice were euthanized and heart (50 mg) and liver tissue (200 mg) were harvested, washed in PBS and processed for mitochondria isolation with Mitochondria Isolation Kit for Tissue (#89801, Thermo Scientific) according to manufacturer's instruction. For analysis of mitochondria purity cytoplasmic and mitochondrial fractions were diluted with reducing sample buffer and analyzed by western blot for SDH and GAPDH presence (see western blot analysis section). SDH activity in isolated mitochondria was analyzed using SDH Activity Colorimetric Kit (#MAK197, Sigma). Isolated mitochondria were directly resuspended in SDH Assay Buffer. In parallel, protein concentration in each sample was determined using RC/DC™ Protein Assay (Biorad) and activity was normalized to protein concentration.

[2] = tested on: BMDMs; test: Nascent protein synthesis (Click chemistry labeling) and proteomic profiling in BMDMs; type: cell-based, mouse; details: DI, LPS 1 h, metabolic labeling, proteomics
Protocol: BMDMs were plated 2×10^6 cells per well in 6-well plates. Cells were either (1) treated with DI (250 μM) for 12 h and then stimulated with LPS (100 ng/mL) for 1 h, or (2) only stimulated with LPS (100 ng/mL) for 1 h, or (3) only treated with DI (250 μM) for 12 h, or (4) neither treated with DI nor LPS. Cells were then washed 3× with PBS and lysed in 200 μL of urea buffer (8 M urea, 75 mM NaCl, 50 mM Tris pH 8.0, 1 mM EDTA). Lysates were then cleared by centrifugation at 20,000 g and protein concentrations were determined by BCA assay (Pierce). 15 μg of total protein per sample were processed further. Disulfide bonds were reduced with 5 mM dithiothreitol and cysteines were subsequently alkylated with 10 mM iodoacetamide. Samples were diluted 1:4 with 50 mM Tris/HCl (pH 8.0) and sequencing grade modified trypsin (Promega) was added in an enzyme-to-substrate ratio of 1:50. After 16 h of digestion, samples were acidified with 1% formic acid (final concentration). […]
BMDMs were grown in 12-well plate, […] per well and treated with DI (250 μM) for 10 h. […] Total protein concentration was determined using RC/DC™ Protein Assay (Biorad). […] Proteins were separated on 4%-20% polyacrylamide gradient gels (BioRad) and biotinylated proteins were detected by western blot with streptavidin-HRP conjugate (1:1000, #554066, BD Pharmingen). […]

T1 sequence (Q8K2B3 43-664): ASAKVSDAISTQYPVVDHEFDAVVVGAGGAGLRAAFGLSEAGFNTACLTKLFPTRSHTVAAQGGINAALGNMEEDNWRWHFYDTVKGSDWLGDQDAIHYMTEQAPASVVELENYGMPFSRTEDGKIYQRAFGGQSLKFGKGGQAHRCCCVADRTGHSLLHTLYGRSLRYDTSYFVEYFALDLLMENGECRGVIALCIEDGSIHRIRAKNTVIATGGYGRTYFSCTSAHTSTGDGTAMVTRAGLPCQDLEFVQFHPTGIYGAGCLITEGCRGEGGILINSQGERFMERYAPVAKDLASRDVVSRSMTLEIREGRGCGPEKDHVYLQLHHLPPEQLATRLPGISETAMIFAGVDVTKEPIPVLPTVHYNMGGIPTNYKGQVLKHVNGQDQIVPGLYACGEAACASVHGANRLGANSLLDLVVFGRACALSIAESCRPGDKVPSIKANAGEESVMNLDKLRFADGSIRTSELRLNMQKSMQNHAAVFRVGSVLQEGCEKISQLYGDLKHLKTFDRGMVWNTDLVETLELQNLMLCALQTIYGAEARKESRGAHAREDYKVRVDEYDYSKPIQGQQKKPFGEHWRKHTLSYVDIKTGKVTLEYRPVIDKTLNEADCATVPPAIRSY
T1 sequence (Q9CQA3 31-282 partner): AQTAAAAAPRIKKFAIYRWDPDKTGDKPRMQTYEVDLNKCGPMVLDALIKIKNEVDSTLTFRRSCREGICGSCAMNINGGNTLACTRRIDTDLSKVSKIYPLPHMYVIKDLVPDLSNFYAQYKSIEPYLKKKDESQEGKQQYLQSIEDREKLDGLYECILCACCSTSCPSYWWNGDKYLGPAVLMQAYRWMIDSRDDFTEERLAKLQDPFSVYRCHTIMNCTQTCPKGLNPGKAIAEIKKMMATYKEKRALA
T1 sequence (Q9CZB0 30-169 partner): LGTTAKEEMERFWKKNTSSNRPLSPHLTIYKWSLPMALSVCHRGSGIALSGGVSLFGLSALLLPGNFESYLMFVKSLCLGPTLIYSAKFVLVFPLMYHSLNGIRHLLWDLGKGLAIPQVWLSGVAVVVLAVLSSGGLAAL
T1 sequence (Q9CXV1 57-159 partner): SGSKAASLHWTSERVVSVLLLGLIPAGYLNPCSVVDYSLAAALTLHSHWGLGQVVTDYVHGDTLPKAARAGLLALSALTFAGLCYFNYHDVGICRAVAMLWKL

## C=C(CC(=O)OC)C(=O)OC [DI, dimethyl itaconate]
[1]
  SDH activity in heart and liver: did not significantly affect SDH activity
[2]
  global protein synthesis: did not affect protein synthesis globally
